Measured values taken from ChEMBL document CHEMBL3044948, “Synthesis and Herbicidal Activity of N-(1-Arylethenyl)-2-chloroacetamides” (Agric Biol Chem, 1991).
Calls of active or inactive are those of the source. The calls are words filed in the database; no cut-off is given here.

What follows are compounds tested on Echinochloa oryzicola (assay: Herbicidal activity against Echinochloa oryzicola at 1 g a.i/a measured after 3 weeks).
Assay type: functional, organism-based

Question: `C=CCN(C(=O)CCl)C(=C(C)C)c1ccccc1` was tested. Which Activity did it give?
Answer: The Activity was “Active”.

Question: `CCCCCCN(C(=O)CCl)C(=C(C)C)c1ccccc1` was tested. Which Activity did it give?
Answer: The Activity was “Active”.

Question: Which Activity does the source give for `C=C(c1ccccc1C)N(C(=O)CCl)c1c(C)cccc1C` here?
Answer: The Activity was “Active”.

Question: How did the Activity turn out when `C=C(c1ccccc1)N(C(=O)CCl)c1c(C)cccc1CC` was run?
Answer: Its Activity is “Active”.

Question: `C=C(c1ccc(C#N)cc1)N(C(=O)CCl)c1c(C)cccc1C` was tested. Which Activity did it give?
Answer: Its Activity is “inactive”.

Question: `C=C(c1ccc(Cl)cc1)N(C(=O)CCl)c1c(C)cccc1C` was tested. Which Activity did it give?
Answer: Its Activity is “inactive”.

Question: Which Activity does the source give for `C=C(c1ccc(OC)cc1)N(C(=O)CCl)c1c(C)cccc1C` here?
Answer: Its Activity is “inactive”.

Question: How did the Activity turn out when `C/C=C(\c1ccccc1)N(CCCC)C(=O)CCl` was run?
Answer: Its Activity is “inactive”.

Question: Which Activity does the source give for `C=C(c1ccccc1Cl)N(C(=O)CCl)c1c(C)cccc1C` here?
Answer: Its Activity is “Active”.

Question: `C=C(c1ccccc1)N(C(=O)CCl)c1c(CC)cccc1CC` was tested. Which Activity did it give?
Answer: The Activity was “inactive”.

Question: `CCN(C(=O)CCl)C(=C(C)C)c1ccccc1` was tested. Which Activity did it give?
Answer: Its Activity is “Active”.

Question: For `C=C(c1cccc(Br)c1)N(C(=O)CCl)c1c(C)cccc1C`, which Activity is on record?
Answer: Its Activity is “inactive”.

Question: Which Activity does the source give for `CC(C)=C(c1ccccc1)N(Cc1ccccc1)C(=O)CCl` here?
Answer: Its Activity is “Active”.

Question: For `CCCN(C(=O)CCl)C(=C(C)C)c1ccccc1`, which Activity is on record?
Answer: Its Activity is “inactive”.

Question: Which Activity does the source give for `C=C(c1ccccc1OC)N(C(=O)CCl)c1c(C)cccc1C` here?
Answer: The Activity was “Active”.

Question: With `CC=C(c1ccccc1)N(C(=O)CCl)c1c(C)cccc1C` (mixture of isomers) as the compound, how does the Activity read?
Answer: The Activity was “inactive”.

Question: For `CC(C)=C(c1ccccc1)N(Cc1ccco1)C(=O)CCl`, which Activity is on record?
Answer: The Activity was “Active”.

Question: `CC(C)=C(c1ccccc1)N(C)C(=O)CCl` was tested. Which Activity did it give?
Answer: The Activity was “Active”.

Question: Which Activity does the source give for `C=C(c1ccccc1)N(C(=O)CCl)c1c(C)cccc1C` here?
Answer: Its Activity is “Active”.

Question: For `C=CCN(C(=O)CCl)/C(=C/C)c1ccccc1`, which Activity is on record?
Answer: Its Activity is “inactive”.

These compounds were tested on Echinochloa oryzicola (assay: Herbicidal activity against Echinochloa oryzicola at 10 g a.i/a measured after 3 weeks).
Assay type: functional, organism-based

Question: `C=CCN(C(=O)CCl)C(=C(C)C)c1ccccc1` was tested. Which Activity did it give?
Answer: Its Activity is “Active”.

Question: How did the Activity turn out when `C=C(c1ccccc1)N(C(=O)CCl)c1ccccc1` was run?
Answer: Its Activity is “inactive”.

Question: `CCCCCCN(C(=O)CCl)C(=C(C)C)c1ccccc1` was tested. Which Activity did it give?
Answer: Its Activity is “Active”.

Question: Which Activity does the source give for `C=C(c1ccc2ccccc2c1)N(C(=O)CCl)c1c(C)cccc1C` here?
Answer: The Activity was “inactive”.

Question: How did the Activity turn out when `C=C(c1ccc(Cl)c(Cl)c1)N(C(=O)CCl)c1c(C)cccc1C` was run?
Answer: The Activity was “inactive”.

Question: How did the Activity turn out when `C=C(c1ccccc1)N(C(=O)CCl)c1cc(C)nn1C` was run?
Answer: Its Activity is “inactive”.

Question: For `C=C(c1ccccc1C)N(C(=O)CCl)c1c(C)cccc1C`, which Activity is on record?
Answer: The Activity was “Active”.

Question: How did the Activity turn out when `CC(C)=C(c1ccccc1)N(C(=O)CCl)C(C)C` was run?
Answer: The Activity was “Active”.

Question: How did the Activity turn out when `CC(C)=C(c1ccccc1)N(C(=O)CCl)c1ccccc1` was run?
Answer: The Activity was “inactive”.

Question: For `C=C(c1cccc([N+](=O)[O-])c1)N(C(=O)CCl)c1c(C)cccc1C`, which Activity is on record?
Answer: Its Activity is “Active”.

Question: How did the Activity turn out when `C=C(c1ccccc1)N(C(=O)CCl)c1c(Cl)cccc1Cl` was run?
Answer: Its Activity is “inactive”.

Question: With `CC(C)=C(c1ccccc1)N(C(=O)CCl)c1ccc(Cl)cc1` as the compound, how does the Activity read?
Answer: The Activity was “Active”.

Question: For `C=C(c1ccccc1)N(C(=O)CCl)c1c(C)cccc1CC`, which Activity is on record?
Answer: Its Activity is “Active”.

Question: How did the Activity turn out when `C=C(c1ccc(C#N)cc1)N(C(=O)CCl)c1c(C)cccc1C` was run?
Answer: Its Activity is “Active”.

Question: How did the Activity turn out when `C=C(c1ccccc1)N(CC1CCCO1)C(=O)CCl` (stereo not given) was run?
Answer: The Activity was “Active”.

Question: With `C=C(c1ccc(OC)cc1)N(CCCCCC)C(=O)CCl` as the compound, how does the Activity read?
Answer: Its Activity is “Active”.

Question: For `C=C(c1cccn1C)N(C(=O)CCl)c1c(C)cccc1C`, which Activity is on record?
Answer: The Activity was “inactive”.

Question: How did the Activity turn out when `C=C(c1ccccc1)N(C(=O)CCl)c1ccccc1OC` was run?
Answer: The Activity was “Active”.

Question: Which Activity does the source give for `CC(C)=C(c1ccccc1)N(C(=O)CCl)c1c(C)cccc1C` here?
Answer: The Activity was “inactive”.

Question: For `C=C(c1ccc(Cl)cc1)N(C(=O)CCl)c1c(C)cccc1C`, which Activity is on record?
Answer: The Activity was “Active”.

Question: Which Activity does the source give for `C=C(c1ccc(OC)cc1)N(C(=O)CCl)c1c(C)cccc1C` here?
Answer: The Activity was “Active”.

Question: For `C/C=C(\c1ccccc1)N(CCCC)C(=O)CCl`, which Activity is on record?
Answer: Its Activity is “Active”.

Question: `C=C(c1ccccc1Cl)N(C(=O)CCl)c1c(C)cccc1C` was tested. Which Activity did it give?
Answer: The Activity was “Active”.

Question: `C=C(c1ccc(SC)s1)N(C(=O)CCl)c1c(C)cccc1C` was tested. Which Activity did it give?
Answer: Its Activity is “inactive”.

Question: How did the Activity turn out when `C=C(c1ccccc1)N(C(=O)CCl)c1cccc2ccccc12` was run?
Answer: Its Activity is “inactive”.

Question: `CCC(C)N(C(=O)CCl)C(=C(C)C)c1ccccc1` (stereo not given) was tested. Which Activity did it give?
Answer: Its Activity is “inactive”.

Question: For `C=C(c1ccccc1)N(C(=O)CCl)c1c(CC)cccc1CC`, which Activity is on record?
Answer: Its Activity is “Active”.

Question: How did the Activity turn out when `CCN(C(=O)CCl)C(=C(C)C)c1ccccc1` was run?
Answer: Its Activity is “Active”.

Question: For `C=C(c1ccccc1)N(C(=O)CCl)c1ccccc1C`, which Activity is on record?
Answer: The Activity was “inactive”.

Question: How did the Activity turn out when `C=C(c1ccco1)N(C(=O)CCl)c1c(C)cccc1C` was run?
Answer: Its Activity is “Active”.

Question: How did the Activity turn out when `C=C(c1cccc(Br)c1)N(C(=O)CCl)c1c(C)cccc1C` was run?
Answer: The Activity was “Active”.

Question: `CC(C)=C(c1ccccc1)N(Cc1ccccc1)C(=O)CCl` was tested. Which Activity did it give?
Answer: The Activity was “Active”.

Question: With `CCCN(C(=O)CCl)C(=C(C)C)c1ccccc1` as the compound, how does the Activity read?
Answer: Its Activity is “Active”.

Question: `C=C(c1ccccc1OC)N(C(=O)CCl)c1c(C)cccc1C` was tested. Which Activity did it give?
Answer: Its Activity is “Active”.

Question: With `CC=C(c1ccccc1)N(C(=O)CCl)c1c(C)cccc1C` (mixture of isomers) as the compound, how does the Activity read?
Answer: Its Activity is “Active”.

Question: How did the Activity turn out when `CC(C)=C(c1ccccc1)N(Cc1ccco1)C(=O)CCl` was run?
Answer: Its Activity is “Active”.

Question: For `CC(C)=C(c1ccccc1)N(CC(C)C)C(=O)CCl`, which Activity is on record?
Answer: Its Activity is “inactive”.

Question: How did the Activity turn out when `CC(C)=C(c1ccccc1)N(C)C(=O)CCl` was run?
Answer: Its Activity is “Active”.

Question: Which Activity does the source give for `C=C(c1ccccc1)N(C(=O)CCl)c1c(C)cccc1C` here?
Answer: The Activity was “Active”.

Question: `C=CCN(C(=O)CCl)/C(=C/C)c1ccccc1` was tested. Which Activity did it give?
Answer: Its Activity is “Active”.
